Values after ≈ are worked out from the molar mass of the structure shown.
Tests used:
Format in all cases: cell-based
[1] = tested on: Botrtyis cinerea (Bc); assay: In vitro pathogen growth inhibition assay, Bc; details: 48 h, ≥90% inhibition; 48 hours vs 2% DMSO control; read-out: Compound Concentration (ppm) sufficient for ≥90% inhibition of growth, Bc
Procedure: (§1) A growth inhibition assay was conducted to determine the ability of compounds to control the growth of fungal pathogens, such as Botrtyis cinerea (Bc), Collectotrichum graminicola (Cg), Diplodia maydis (Dm), Fusarium moniliforme (Fm), Fusarium virguliforme (Fv), Phytophthora capsici (Pc), Rhizoctonia solani (Rs), and Septoria tritici (St). The compounds listed in Table 1 were each dissolved in DMSO at 2.5 mg/ml to produce compound stock solutions (“stocks”). […] Negative controls on each plate included 2% DMSO, water, and a blank (media+2% DMSO). Fungal spores were isolated from previously sub-cultured plates of Botrtyis cinerea (Bc), Collectotrichum graminicola (Cg), Diplodia maydis (Dm), Fusarium moniliforme (Fm), Fusarium virguliforme (Fv), Phytophthora capsici (Pc), and Septoria tritici (St). The isolated spores were diluted to individual concentrations with a 17% V8 liquid media. For Rhizoctonia solani (Rs), 1.5 mm mycelial plugs were used in place of spores and ¼ Potato Dextrose Broth (PDB) was used for dilution. The spore concentrations and plug sizes were based on growth curves generated at 48 hours for each pathogen. In a second 96-well plate, the spores or mycelial plugs, media, diluted compound solutions, and controls were combined. Once the compound was added, a true final concentration of compound in each well was measured by an OD600 reading, which adjusted for any compound precipitation that might have occurred in the well. Plate readings were repeated at both 24 and 48 hours. The blank negative control was used as a background subtraction. Additional visual ratings were performed at both 24 and 48 hours for checking on precipitation and confirming efficacy. […] Both tables list the concentration of each compound that was sufficient to ≥90% inhibition of growth for each of the fungal pathogens listed above. In addition, some of compounds were tested in a yeast growth inhibition assay for Saccharomyces cerevisiae (Sc). Table 2 lists the concentration of the tested compound that was sufficient to ≥75% inhibition of Saccharomyces cerevisiae (Sc).

[2] = tested on: Septoria tritici (St); assay: In vitro pathogen growth inhibition assay, St; details: Zymoseptoria tritici, 48 h, ≥90% inhibition; 48 hours vs 2% DMSO control; read-out: Compound Concentration (ppm) sufficient for ≥90% inhibition of growth, St
Procedure: as §1

[3] = tested on: Fusarium virguliforme (Fv); assay: In vitro pathogen growth inhibition assay, Fv; details: ≥90% inhibition, 48 hours vs 2% DMSO control, read-out: Compound Concentration (ppm) sufficient for ≥90% inhibition of growth, Fv
Procedure: as §1

[4] = tested on: Diplodia maydis (Dm); assay: In vitro pathogen growth inhibition assay, Dm; details: Stenocarpella maydis, 48 h, ≥90% inhibition; 48 hours vs 2% DMSO control; read-out: Compound Concentration (ppm) sufficient for ≥90% inhibition of growth, Dm
Procedure: as §1

[5] = tested on: Fusarium moniliforme (Fm); assay: In vitro pathogen growth inhibition assay, Fm; details: Fusarium verticillioides; ≥90% inhibition; 48 hours vs 2% DMSO control; read-out: Compound Concentration (ppm) sufficient for ≥90% inhibition of growth, Fm
Procedure: as §1

[6] = tested on: Rhizoctonia solani (Rs); assay: In vitro pathogen growth inhibition assay, Rs (mycelial plugs); details: Rhizoctonia solani, 48 h, ≥90% inhibition; mycelial plugs; 48 hours vs 2% DMSO control; read-out: Compound Concentration (ppm) sufficient for ≥90% inhibition of growth, Rs
Procedure: as §1

[7] = tested on: Collectotrichum graminicola (Cg); assay: In vitro pathogen growth inhibition assay, Cg; details: 48 h, ≥90% inhibition; 48 hours vs 2% DMSO control; read-out: Compound Concentration (ppm) sufficient for ≥90% inhibition of growth, Cg
Procedure: as §1

[8] = tested on: Phytophthora capsici (Pc); assay: In vitro pathogen growth inhibition assay, Pc; details: 48 h, ≥90% inhibition, 48 hours vs 2% DMSO control, read-out: Compound Concentration (ppm) sufficient for ≥90% inhibition of growth, Pc
Procedure: as §1

Row | SMILES | IC90 [1] [µg/mL] | IC90 [2] [µg/mL] | IC90 [3] [µg/mL] | IC90 [4] [µg/mL] | IC90 [5] [µg/mL] | IC90 [6] [µg/mL] | IC90 [7] [µg/mL] | IC90 [8] [µg/mL]
1 | Cc1c(-n2nccn2)sc2c1c(=O)n(C(C)(C)C(=O)NC(C)C)c(=O)n2C[C@H](OC(C)C)c1cc(F)ccc1OCCO [Compound I-071] | 0.4 (≈ 0.649 µM) | ≥ 50 | 0.4 (≈ 0.649 µM) | 0.4 (≈ 0.649 µM) | 0.08 (≈ 0.13 µM) | ≥ 0.08 | 0.4 (≈ 0.649 µM) | ≥ 50
2 | COc1ccc(F)cc1[C@H](Cn1c(=O)n(C(C)(C)C(=O)N2CC=CC2)c(=O)c2c(C)c(-n3nccn3)sc21)OC1CCOCC1 [Compound I-075] | 2 (≈ 3.13 µM) | > 50 | 0.4 (≈ 0.626 µM) | 0.4 (≈ 0.626 µM) | 0.08 (≈ 0.125 µM) | 0.08 (≈ 0.125 µM) | 0.4 (≈ 0.626 µM) | > 50
3 | COCCOc1ccc(F)cc1[C@H](Cn1c(=O)n(C(C)(C)C(=O)NC(C)C)c(=O)c2c(C)c(-n3nccn3)sc21)OC1CCOCC1 [Compound I-076] | 2 (≈ 2.97 µM) | ≥ 10 | 0.4 (≈ 0.595 µM) | 0.4 (≈ 0.595 µM) | 0.08 (≈ 0.119 µM) | 0.08 (≈ 0.119 µM) | 0.4 (≈ 0.595 µM) | ≥ 50
4 | C=CCNC(=O)C(C)(C)n1c(=O)c2c(C)c(-n3nccn3)sc2n(C[C@H](OC2CCOCC2)c2cc(F)ccc2OC)c1=O [Compound I-079] | 2 (≈ 3.19 µM) | > 50 | 0.4 (≈ 0.638 µM) | 2 (≈ 3.19 µM) | 0.08 (≈ 0.128 µM) | 0.4 (≈ 0.638 µM) | 2 (≈ 3.19 µM) | > 50
5 | C=CCN(C)C(=O)C(C)(C)n1c(=O)c2c(C)c(-n3nccn3)sc2n(C[C@H](OC2CCOCC2)c2cc(F)ccc2OC)c1=O [Compound I-080] | 0.4 (≈ 0.624 µM) | > 50 | 2 (≈ 3.12 µM) | 0.4 (≈ 0.624 µM) | 0.08 (≈ 0.125 µM) | 0.08 (≈ 0.125 µM) | 0.08 (≈ 0.125 µM) | > 50

Other lines, results leading:

Row | IC90 [1] [µg/mL] | IC90 [2] [µg/mL] | IC90 [3] [µg/mL] | IC90 [4] [µg/mL] | IC90 [5] [µg/mL] | IC90 [6] [µg/mL] | IC90 [7] [µg/mL] | IC90 [8] [µg/mL] | SMILES
6 | 2 (≈ 3.24 µM) | ≥ 2 | 0.4 (≈ 0.649 µM) | 0.4 (≈ 0.649 µM) | 0.08 (≈ 0.13 µM) | ≥ 0.4 | ≥ 0.08 | 10 (≈ 16.2 µM) | COc1ccc(F)cc1[C@H](Cn1c(=O)n(C(C)(C)C(=O)NC(C)C)c(=O)c2c(C)c(-n3nccn3)sc21)OCC(C)(C)O [Compound I-072]
7 | 2 (≈ 3.18 µM) | ≥ 10 | 0.4 (≈ 0.636 µM) | 2 (≈ 3.18 µM) | 0.08 (≈ 0.127 µM) | ≥ 0.4 | 0.4 (≈ 0.636 µM) | > 50 | COc1ccc(F)cc1[C@H](Cn1c(=O)n(C(C)(C)C(=O)N2CCCC2)c(=O)c2c(C)c(-n3nccn3)sc21)OCC(C)(C)O [Compound I-073]
8 | 2 (≈ 3.42 µM) | > 50 | 0.4 (≈ 0.684 µM) | 2 (≈ 3.42 µM) | 0.08 (≈ 0.137 µM) | 0.4 (≈ 0.684 µM) | 2 (≈ 3.42 µM) | > 50 | C=CCO[C@@H](Cn1c(=O)n(C(C)(C)C(=O)NC(C)C)c(=O)c2c(C)c(-n3nccn3)sc21)c1cc(F)ccc1OC [Compound I-077]
9 | 2 (≈ 3.42 µM) | > 50 | 0.4 (≈ 0.684 µM) | 2 (≈ 3.42 µM) | 0.08 (≈ 0.137 µM) | 0.4 (≈ 0.684 µM) | 2 (≈ 3.42 µM) | > 50 | COc1ccc(F)cc1[C@H](Cn1c(=O)n(C(C)(C)C(=O)NC2CC2)c(=O)c2c(C)c(-n3nccn3)sc21)OC(C)C [Compound I-078]
10 | 2 (≈ 3.26 µM) | > 50 | 0.4 (≈ 0.653 µM) | 2 (≈ 3.26 µM) | 0.08 (≈ 0.131 µM) | 0.4 (≈ 0.653 µM) | 0.4 (≈ 0.653 µM) | ≥ 50 | COc1ccc(F)cc1[C@H](Cn1c(=O)n(C(C)(C)C(=O)N2CC=CC2)c(=O)c2c(C)c(-n3nccn3)sc21)OC[C@@H](C)O [Compound I-081]
11 | 2 (≈ 3.18 µM) | ≥ 50 | 0.4 (≈ 0.636 µM) | 2 (≈ 3.18 µM) | 0.08 (≈ 0.127 µM) | 0.4 (≈ 0.636 µM) | 2 (≈ 3.18 µM) | > 50 | COCCCO[C@@H](Cn1c(=O)n(C(C)(C)C(=O)N2CCCC2)c(=O)c2c(C)c(-n3nccn3)sc21)c1cc(F)ccc1OC [Compound I-083]

Reference: US10941157B2, “Pesticidal compositions and uses thereof” (Gilead Apollo, LLC, priority 2015, dated 2021)
